According to PMC12486301 (The Journal of pharmacology and experimental therapeutics, 2025):
“And” between values parts separate entries of the source, which are not always exact repeats. Identical values can stand only once. Like-named read-outs stand apart in the source and are kept apart here.

Tests used:
[1] = tested on: HeLa FlpIn ENT2 cell line; conditions: 2 minutes
HeLa S2 cell line = test: Functional assessment: NBMPR block of [3H]uridine uptake in HeLa S2 cells; type: cell-based, human; conditions: 100 nM NBMPR, 2 minutes
ENT1 [2] = biological target: T1, ENT1 (Homo sapiens, UniProt Q99808); test: Inhibition of [3H]uridine uptake into WT HeLa; type: cell-based; conditions: for inhibition at 20 µM: HeLa, read-out: ENT1 % Inhibition (20μM)
T1 sequence (Q99808 1-456): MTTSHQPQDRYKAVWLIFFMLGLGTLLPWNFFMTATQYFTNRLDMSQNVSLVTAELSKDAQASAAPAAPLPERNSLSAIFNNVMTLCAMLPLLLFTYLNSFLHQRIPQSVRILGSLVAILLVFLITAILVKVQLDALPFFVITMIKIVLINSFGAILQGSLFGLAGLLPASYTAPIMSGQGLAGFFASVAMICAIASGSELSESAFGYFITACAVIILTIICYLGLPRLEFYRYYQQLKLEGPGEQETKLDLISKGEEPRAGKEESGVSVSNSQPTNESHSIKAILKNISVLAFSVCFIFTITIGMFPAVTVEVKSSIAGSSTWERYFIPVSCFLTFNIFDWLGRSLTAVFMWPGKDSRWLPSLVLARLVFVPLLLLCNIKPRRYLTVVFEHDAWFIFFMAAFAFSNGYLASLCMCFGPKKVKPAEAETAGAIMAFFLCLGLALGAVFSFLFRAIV

[3] = ref Table S8, cited from earlier work
ENT2 [4] = biological target: T2, ENT2 (Homo sapiens, UniProt Q14542); test: Inhibition of [3H]uridine uptake into HeLa FlpIn cells overexpressing hENT2; type: cell-based; conditions: for inhibition at 20 µM: HeLa, read-out: ENT2 % Inhibition (20μM)
T2 sequence (Q14542 1-456): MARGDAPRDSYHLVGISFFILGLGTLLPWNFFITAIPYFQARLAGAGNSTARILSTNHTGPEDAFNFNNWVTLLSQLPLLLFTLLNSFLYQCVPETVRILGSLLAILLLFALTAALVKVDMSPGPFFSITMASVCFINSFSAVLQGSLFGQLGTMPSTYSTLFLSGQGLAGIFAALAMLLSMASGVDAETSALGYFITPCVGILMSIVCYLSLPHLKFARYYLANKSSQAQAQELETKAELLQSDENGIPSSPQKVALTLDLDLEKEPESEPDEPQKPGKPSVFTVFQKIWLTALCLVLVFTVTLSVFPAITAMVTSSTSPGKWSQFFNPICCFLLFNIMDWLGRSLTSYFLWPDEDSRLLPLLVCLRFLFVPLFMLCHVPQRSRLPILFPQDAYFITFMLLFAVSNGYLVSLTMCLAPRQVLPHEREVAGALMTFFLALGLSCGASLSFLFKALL

ENT2 [5] = biological target: T2, ENT2; conditions: 5 min uptake, pH 7.4
ENT1 [6] = biological target: T1, ENT1; test: Kinetics of radiolabeled uridine uptake, ENT1 cell line; type: cell-based; conditions: 5 min uptake, pH 7.4

In the case of O=[N+]([O-])c1ccc(CSc2ncnc3c2ncn3C2OC(CO)C(O)C2O)cc1 (stereo not shown) [NBMPR, nitrobenzylthioinosine], the “total [3H]uridine uptake blocked” value ([1]; 100 nM NBMPR) is reported as ~ 55%, the “total [3H]uridine uptake reduced” value ([1]; 100 μM NBMPR) is reported as ~ 80% and the “reduction of [3H]uridine uptake” value (HeLa S2 cell line) is reported as 65–75%.

In the case of CC(=O)N1CCN(c2ccc(OCC3COC(Cn4ccnc4)(c4ccc(Cl)cc4Cl)O3)cc2)CC1 (stereo not shown) [ketoconazole], the IC50 (ENT1 [2]) is listed as 7.2 ± 1.2 µM, the inhibition at 20 µM (ENT1 [2]) is listed as 98.4% and the “human plasma levels (molar)” value ([3]; converted from ng/mL) is listed as 6.6 µM and 11.3 µM. For the same molecule, the human plasma levels ([3]; documented clinical concentrations) was 3500 ng/mL and 6000 ng/mL, the IC50 (ENT2 [4]) was 22.8 ± 0.7 µM and the inhibition at 20 µM (ENT2 [4]) was 89.4%.

For Cc1ccc([C@@H]2O[C@H](CO)[C@@H](O)[C@H](O)[C@H]2O)cc1Cc1ccc(-c2ccc(F)cc2)s1 [canagliflozin], the “ENT1 % Inhibition (20μM)” value (ENT1 [2]; 20 μM compound, 5 min [3H]uridine uptake, WT HeLa cells) was 74.5%, the IC50 (ENT1 [2]; read-out: ENT1 IC50 (μM) ± SD, 5 min uptake of ~10 nM [3H]uridine, WT HeLa cells) was 24 ± 5.1 µM and the “ENT2 % Inhibition (20μM)” value (ENT2 [4]; 20 μM compound, 5 min [3H]uridine uptake, HeLa cells overexpressing hENT2) was 56.5%.

With O=c1c(O)c(-c2cc(O)c(O)c(O)c2)oc2cc(O)cc(O)c12 [myricetin] the IC50 (ENT1 [2]) was 47.4 ± 1.7 µM, the inhibition at 20 µM (ENT1 [2]) was 82.4% and the IC50 (ENT2 [4]) was 28.2 ± 1.6 µM.

For O=c1ccn([C@@H]2O[C@H](CO)[C@@H](O)[C@H]2O)c(=O)[nH]1 [uridine], the “Kt, Michaelis constant for uridine” value (ENT2 [5]) was 119.1 ± 28.9 µM, the “Jmax, maximal rate of uridine transport” value (ENT1 [6]) was 20.2 ± 5.1 pmol·cm^−2·min^−1 and the “Kt, Michaelis constant for uridine” value (ENT1 [6]) was 37.7 ± 12.9 µM.

Molecule CCOC(=O)c1ncn2c1CN(C)C(=O)c1cc(F)ccc1-2 [flumazenil] has an IC50 (ENT1 [2]) of 121 ± 0.7 µM, an inhibition at 20 µM (ENT1 [2]) of 20% and an IC50 (ENT2 [4]) of 3.82 ± 0.3 µM. It also gave an inhibition at 20 µM (ENT2 [4]) of 85.1%.
